Like-named read-outs stand apart in the source and are kept apart here.
Assays:
[1] = tested on: Escherichia coli expressing NDM-1 (CLB30005, CLB30016); assay type: cell-based; details: NDM-1 strain, with imipenem 1 μg/ml, 95% inhibition of growth
Method in brief: (§1)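 Growth by absorbance after 22–24 h at 35°C defined the read-out, with imipenem fixed at 1 μg/ml alongside compound. Inocula came from overnight blood-agar colonies at 35°C, resuspended in saline and diluted 1:100 in 1.1×CAMHB.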

[2] = tested on: Klebsiella pneumoniae expressing VIM-1 (IHMA599644); assay type: cell-based; details: VIM-1 strain IHMA599644, with imipenem 1 μg/ml, 95% inhibition of growth
Method in brief: as §1

[3] = tested on: Serratia marcescens expressing IMP-1 (CL5741); assay type: cell-based; details: IMP-1 strain CL5741, with imipenem 1 μg/ml, 95% inhibition of growth
Method in brief: as §1

[4] = tested on: Pseudomonas aeruginosa MB9798 vs MB9799; details: ratio MITC95 PA_9798/MITC95 PA_9799
Method in brief: (§2)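 Microbroth MIC tests in PAO1-background strains with fixed imipenem and/or ceftazidime, usually at the CLSI breakpoint, plus fixed class A/C β-lactamase inhibitor against AmpC. MBL inhibitor titrated; concentration restoring susceptibility recorded and compared as fold difference between efflux+ MB9798 and efflux− MB9799.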

[5] = tested on: Pseudomonas aeruginosa efflux+ (MB9798), IMP-1; assay type: cell-based; details: concentration restoring susceptibility to imipenem at 2 μg/mL in the presence of a class A, C, D serine β-lactamase inhibitor closely related to relebactam
Method in brief: as §2

VIM-1 = VIM-1 (Pseudomonas aeruginosa (strain ATCC 15692 / DSM 22644 / CIP 104116 / JCM 14847 / LMG 12228 / 1C / PRS 101 / PAO1), UniProt A0A0F7KYQ8); experiment: biochemical; details: CCF2-FA substrate, 30 pM enzyme, 2 hours at 25° C.
Method in brief: (§3)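 Test compound, enzyme and the FRET cephalosporin substrate CCF2-FA are incubated together for 2 hours at 25° C. Cleavage is followed by fluorescence, and IC50 values are derived from semi-logarithmic inhibition curves fitted with a 4-parameter model.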

IMP-1 = IMP-1 (Serratia marcescens, UniProt P52699); experiment: biochemical; assay type: biochemical; details: fluorescence assay, CCF2-FA substrate, 2 pM enzyme, 2 hours at 25° C.; read-out: IMP-1 IC50
Method in brief: as §3

NDM-1 = NDM-1 (Klebsiella pneumoniae, UniProt C7C422); experiment: biochemical; assay type: biochemical; details: fluorescence assay, CCF2-FA substrate, 1 pM enzyme, 2 hours at 25° C.; read-out: NDM-1 IC50
Method in brief: as §3

[6] = tested on: Pseudomonas aeruginosa efflux− (MB9799), IMP-1; assay type: cell-based; details: concentration restoring susceptibility to imipenem at 2 μg/mL in the presence of a class A, C, D serine β-lactamase inhibitor closely related to relebactam
Method in brief: as §2

[7] = fluorescence assay, read-out: VIM-1 IC50

Chain of IMP-1 (P52699 whole entry, looked up, species assumed): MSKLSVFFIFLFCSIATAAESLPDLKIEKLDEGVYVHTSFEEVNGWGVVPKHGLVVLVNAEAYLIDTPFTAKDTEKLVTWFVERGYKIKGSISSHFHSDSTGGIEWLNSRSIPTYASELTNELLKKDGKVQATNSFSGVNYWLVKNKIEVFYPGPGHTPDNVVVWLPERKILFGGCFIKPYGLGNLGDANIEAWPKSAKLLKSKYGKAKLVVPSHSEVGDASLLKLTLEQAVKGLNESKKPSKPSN
Chain of NDM-1 (C7C422 whole entry, looked up, species assumed): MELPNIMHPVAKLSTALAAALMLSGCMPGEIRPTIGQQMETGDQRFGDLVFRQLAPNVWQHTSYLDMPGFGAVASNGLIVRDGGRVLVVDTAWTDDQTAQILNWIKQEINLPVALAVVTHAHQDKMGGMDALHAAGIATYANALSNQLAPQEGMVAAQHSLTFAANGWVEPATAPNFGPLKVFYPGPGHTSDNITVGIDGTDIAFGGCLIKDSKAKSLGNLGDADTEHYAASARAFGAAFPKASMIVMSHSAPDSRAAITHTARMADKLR

| Compound | Escherichia coli MITC95 [1] [µM] | Klebsiella pneumoniae MITC95 [2] [µM] | Serratia marcescens MITC95 [3] [µM] | Efflux ratio [4] | P. aeruginosa expressing IMP-1, efflux + (MB9798) MITC95 [5] [µM] | IC50 (VIM-1; [7]) [nM] | IC50 (IMP-1) [nM] | IC50 (NDM-1) [nM] | P. aeruginosa expressing IMP-1, efflux − (MB9799) MITC95 [6] [µM] | IC50 (VIM-1; VIM-1 IC50, fluorescence assay) [nM] |
| --- | --- | --- | --- | --- | --- | --- | --- | --- | --- | --- |
| C[C@H](CCN)NS(=O)(=O)c1ccc(-c2cccc3[nH]c(N)nc23)c(-c2nn[nH]n2)c1S(N)(=O)=O [Example 266, (R)-4-(2-amino-1H-benzo[d]imidazol-4-yl)-N1-(4-aminobutan-2-yl)-3-(2H-tetrazol-5-yl)benzene-1,2-disulfonamide] | 0.7813 | 0.7813 | 0.7813 | 0.50 | 0.3906 | 0.115 | 0.477 | 0.0282 | 0.7813 |  |
| C[C@@H](CCN)NS(=O)(=O)c1ccc(-c2cccc3[nH]c(N)nc23)c(-c2nn[nH]n2)c1S(N)(=O)=O [Example 267, (S)-4-(2-amino-1H-benzo[d]imidazol-4-yl)-N1-(4-aminobutan-2-yl)-3-(2H-tetrazol-5-yl)benzene-1,2-disulfonamide] | 0.7813 | 1.563 | 1.563 | 1.00 | 0.7813 | 0.279 | 1.63 | 0.179 | 0.7813 |  |
| NCCN1CC[C@H](NS(=O)(=O)c2ccc(-c3cccc4[nH]c(N)nc34)c(-c3nn[nH]n3)c2S(N)(=O)=O)C1 [Example 268, (S)-4-(2-amino-1H-benzo[d]imidazol-4-yl)-N1-(1-(2-aminoethyl)pyrrolidin-3-yl)-3-(2H-tetrazol-5-yl)benzene-1,2-disulfonamide] | 0.7813 | 1.563 | 1.563 | 1.00 | 0.7813 |  | 1.1 | 0.0612 | 0.7813 | 0.15 |
| NCC(=O)NC1CCC[C@@H](c2ccc(S(=O)(=O)N[C@@H]3CCNC3)c(S(N)(=O)=O)c2-c2nn[nH]n2)C1 (stereo partly drawn) [Example 270, 2-Amino-N-((3R)-3-(4-(N—((R)-pyrrolidin-3-yl)sulfamoyl)-3-sulfamoyl-2-(2H-tetrazol-5-yl)phenyl)cyclohexyl)acetamide] | 1.563 | 3.125 | 3.125 | 1.00 | 1.563 | 0.202 | 2.32 | 0.244 | 1.563 |  |
| NC(=O)c1nc2c(-c3ccc(S(=O)(=O)N[C@@H]4CCNC4)c(S(N)(=O)=O)c3-c3nn[nH]n3)cccc2[nH]1 [Example 271, (R)-4-(4-(N-(pyrrolidin-3-yl)sulfamoyl)-3-sulfamoyl-2-(2H-tetrazol-5-yl)phenyl)-1H-benzo[d]imidazole-2-carboxamide] | 1.563 | 3.125 | 0.7813 | 0.50 | 0.7813 | 0.0989 | 0.271 | 0.0196 | 1.563 |  |
| C[C@H](N)c1nc2c(-c3ccc(S(=O)(=O)N[C@@H]4CCNC4)c(S(N)(=O)=O)c3-c3nn[nH]n3)cccc2[nH]1 [Example 272, 4-(2-((S)-1-aminoethyl)-1H-benzo[d]imidazol-4-yl)-N1-((R)-pyrrolidin-3-yl)-3-(2H-tetrazol-5-yl)benzene-1,2-disulfonamide] | 3.125 | 1.563 | 1.563 | 2.00 | 1.563 | 0.11 | 1.36 | 0.0667 | 0.7813 |  |
| C[C@@H](N)c1nc2c(-c3ccc(S(=O)(=O)N[C@@H]4CCNC4)c(S(N)(=O)=O)c3-c3nn[nH]n3)cccc2[nH]1 [Example 273, 4-(2-((R)-1-aminoethyl)-1H-benzo[d]imidazol-4-yl)-N1-((R)-pyrrolidin-3-yl)-3-(2H-tetrazol-5-yl)benzene-1,2-disulfonamide] | 1.563 | 1.563 | 1.563 | 1.00 | 0.7813 | 0.124 | 1.41 | 0.0565 | 0.7813 |  |
| NCc1nc2cc(-c3ccc(S(=O)(=O)N[C@@H]4CCNC4)c(S(N)(=O)=O)c3-c3nn[nH]n3)ccc2[nH]1 [Example 274, (R)-4-(2-(aminomethyl)-1H-benzo[d]imidazol-5-yl)-N1-(pyrrolidin-3-yl)-3-(2H -tetrazol-5-yl)benzene-1,2-disulfonamide] | 0.7813 | 1.563 | 1.563 | 1.00 | 0.7813 | 0.102 | 0.486 | 0.0833 | 0.7813 |  |
| NCc1nc2cc(-c3ccc(S(=O)(=O)N[C@@H]4CCNC4)c(S(N)(=O)=O)c3-c3nn[nH]n3)ccc2s1 [Example 275, (R)-4-(2-(aminomethyl)benzo[d]thiazol-5-yl)-N^1-(pyrrolidin-3-yl)-3-(2H-tetrazol-5-yl)benzene-1,2-disulfonamide] | 0.7813 | 1.563 | 0.7813 | 1.00 | 0.7813 |  | 0.171 | 0.0633 | 0.7813 | 0.0902 |
| NCc1nc2c(-c3ccc(S(=O)(=O)N[C@@H]4CCNC4)c(S(N)(=O)=O)c3-c3nn[nH]n3)cccc2s1 [Example 276, (R)-4-(2-(aminomethyl)benzo[d]thiazol-4-yl)-N1-(pyrrolidin-3-yl)-3-(2H-tetrazol-5-yl)benzene-1,2-disulfonamide] | 1.172 | 0.7813 | 0.7813 | 1.00 | 0.7813 |  | 0.542 | 0.0561 | 0.7813 | 0.0881 |
| Nc1cccc(-c2ccc(S(=O)(=O)N[C@@H]3CCNC3)c(S(N)(=O)=O)c2-c2nn[nH]n2)n1 [Example 277, (R)-4-(6-aminopyridin-2-yl)-N1-(pyrrolidin-3-yl)-3-(2H-tetrazol-5-yl)benzene-1,2-disulfonamide] | 0.7813 | 1.563 | 1.563 | 1.00 | 0.7813 | 0.129 | 1.27 | 0.148 | 0.7813 |  |
| NCc1ncc(-c2cccc(-c3ccc(S(=O)(=O)N[C@@H]4CCNC4)c(S(N)(=O)=O)c3-c3nn[nH]n3)c2)[nH]1 [Example 278, (R)-3′-(2-(aminomethyl)-1H-imidazol-5-yl)-N4-(pyrrolidin-3-yl)-2-(2H-tetrazol-5-yl)-[1,1′-biphenyl]-3,4-disulfonamide] | 0.7813 | 0.7813 | 0.7813 | 1.00 | 0.7813 |  | 0.64 | 0.0566 | 0.7813 | 0.144 |

Source: patent US10221163B2 (priority 2015, dated 2019)
